# Assay results: ChEMBL document CHEMBL6153109, “Switching Roles─Exploring Concentration-Dependent Agonistic versus Antagonistic Behavior of Integrin Ligands” (J Med Chem, 2025)
# Activity calls are given as the source filed them. The rule behind the calls is not given here.
# How the values were obtained:
# [1] = Drug localization in cell membrane of human M21 cells overexpressing integrin alphaVbeta3 at 1 uM measured within 3 mins by CellMask green staining based fluorescence analysis; assay type: ADME, cell membranes; settings: m21, 0.05 h
# [2] = Drug localization in cell membrane of human M21 cells overexpressing integrin alphaVbeta3 at 1 uM measured at 30 mins by CellMask green staining based fluorescence analysis; assay type: ADME, cell membranes; settings: m21, 0.5 h
# [3] = Drug uptake in human M21 cells overexpressing integrin alphaVbeta3 at 1 uM measured at 60 to 300 mins by Hoechst 33342 staining based fluorescence analysis; assay type: ADME, cell-based; settings: m21, 1 µM, time 60-300 min
# [4] = Drug uptake in human OV-MZ-6 cells overexpressing integrin […] at 1 uM measured after 300 mins by Hoechst 33342 staining based fluorescence analysis; assay type: ADME, cell-based; settings: ov-mz-6, 5 h
# OV-MZ-6 [5] = experiment: Inhibition of cell migration in human OV-MZ-6 cells expressing integrin alpha5beta1 assessed as delay in wound gap closure at 1 to 1000 nM measured after 72 hrs by wound scratch assay; assay type: functional, cell-based; settings: dose 1-1000 nM
# Integrin alpha-5/beta-1 [6] = target: T1, Integrin alpha-5/beta-1 (Homo sapiens, UniProt P05556+P08648); experiment: Agonist activity at integrin alpha5beta1 in human OV-MZ-6 cells assessed as increase in FAK expression at 1 uM incubated for 24 hrs by Western blot analysis; assay type: cell-based
# Integrin alpha-V/beta-3 [7] = target: T2, Integrin alpha-V/beta-3 (Homo sapiens, UniProt P05106+P06756); experiment: Competitive binding affinity to human Integrin alphaVbeta3 incubated for 1 hrs in presence of vitronectin by ELISA based spectrophotometric analysis; assay type: protein-complex assay
# Integrin alpha-V/beta-6 [8] = target: T3, Integrin alpha-V/beta-6 (Homo sapiens, UniProt P06756+P18564); experiment: Competitive binding affinity to human Integrin alphaVbeta6 incubated for 1 hrs in presence of […] of TGF-beta1 by ELISA based spectrophotometric analysis; assay type: protein-complex assay
# HN [9] = experiment: Effect on cell migration in human HN cells expressing alphaVbeta6 at 1 to 1000 nM measured after 48 hrs by microscopic imaging analysis; assay type: functional, cell-based; settings: dose 1-1000 nM
# Integrin alpha-V/beta-3 [10] = target: T2, Integrin alpha-V/beta-3; experiment: Agonist activity at integrin alphaVbeta3 in human M21 cells assessed as increase in p-FAK expression at 1 uM incubated for 24 hrs by Western blot analysis; assay type: cell-based
# Integrin alpha-V/beta-3 [11] = target: T2, Integrin alpha-V/beta-3; experiment: Agonist activity at integrin alphaVbeta3 in human M21 cells assessed as increase in FAK expression at 1 uM incubated for 24 hrs by Western blot analysis; assay type: cell-based
# Integrin alpha-V/beta-3 [12] = target: T2, Integrin alpha-V/beta-3; experiment: Agonist activity at integrin alphaVbeta3 in human M21 cells assessed as increase in p-ERK1/2 expression at 1 uM incubated for 24 hrs by Western blot analysis; assay type: cell-based
# Integrin alpha-V/beta-3 [13] = target: T2, Integrin alpha-V/beta-3; experiment: Agonist activity at integrin alphaVbeta3 in human M21 cells assessed as increase in ERK1/2 expression at 1 uM incubated for 24 hrs by Western blot analysis; assay type: cell-based
# Integrin alpha-5/beta-1 [14] = target: T1, Integrin alpha-5/beta-1; experiment: Agonist activity at integrin alpha5beta1 in human OV-MZ-6 cells assessed as increase in p-FAK expression at 1 uM incubated for 24 hrs by Western blot analysis; assay type: cell-based
# Integrin alpha-5/beta-1 [15] = target: T1, Integrin alpha-5/beta-1; experiment: Agonist activity at integrin alpha5beta1 in human OV-MZ-6 cells assessed as increase in ERK1/2 expression at 1 uM incubated for 24 hrs by Western blot analysis; assay type: cell-based
# Integrin alpha-5/beta-1 [16] = target: T1, Integrin alpha-5/beta-1; experiment: Agonist activity at integrin alpha5beta1 in human OV-MZ-6 cells assessed as increase in p-ERK1/2 expression at 1 uM incubated for 24 hrs by Western blot analysis; assay type: cell-based
# Integrin alpha-V/beta-6 [17] = target: T3, Integrin alpha-V/beta-6; experiment: Agonist activity at integrin alphaVbeta6 in human HN cells assessed as increase in FAK expression at 1 to 1000 nM measured within 60 mins by Western blot analysis; assay type: cell-based; settings: filed as agonist, dose 1-1000 nM
# Integrin alpha-5/beta-1 [18] = target: T1, Integrin alpha-5/beta-1; experiment: Agonist activity at integrin alpha5beta1 in human OV-MZ-6 cells assessed as increase in FAK expression at 1 to 1000 nM measured after 5 to 60 mins by Western blot analysis; assay type: cell-based; settings: dose 1-1000 nM, time 5-60 min
# Integrin alpha-V/beta-6 [19] = target: T3, Integrin alpha-V/beta-6; experiment: Agonist activity at integrin alphaVbeta6 in human HN cells assessed as fold increase in p-FAK expression at 1 nM measured within 30 mins by Western blot analysis (reference value: 1); assay type: cell-based; settings: filed as agonist
# Integrin alpha-V/beta-6 [20] = target: T3, Integrin alpha-V/beta-6; experiment: Agonist activity at integrin alphaVbeta6 in human HN cells assessed as fold increase in p-FAK expression at 1 uM measured within 30 mins by Western blot analysis (reference value: 1); assay type: cell-based; settings: filed as agonist
# Integrin alpha-5/beta-1 [21] = target: T1, Integrin alpha-5/beta-1; experiment: Agonist activity at integrin alpha5beta1 in human OV-MZ-6 cells assessed as fold increase in p-FAK expression at 1 nM measured after 5 to 60 mins by Western blot analysis (reference value: 1); assay type: cell-based; settings: filed as agonist, time 5-60 min
# HN [22] = experiment: Effect on cell migration in human HN cells expressing integrin alphaVbeta6 at 1 to 1000 nM measured after 9 to 24 hrs by wound scratch assay; assay type: functional, cell-based; settings: dose 1-1000 nM, time 9-24 hrs
# OV-MZ-6 [23] = experiment: Inhibition of cell migration in human OV-MZ-6 cells expressing integrin alpha5beta1 assessed as delay in wound gap closure at 1 to 1000 nM measured immediately by wound scratch assay; assay type: functional, cell-based; settings: dose 1-1000 nM
# [24] = Drug uptake in human HN cells overexpressing integrin alphaVbeta6 at 1 uM measured within 3 mins by Hoechst 33342 staining based fluorescence analysis; assay type: ADME, cell-based; settings: 0.05 h
# [25] = Drug uptake in human HN cells overexpressing integrin alphaVbeta6 at 1 uM measured at 60 to 300 mins by Hoechst 33342 staining based fluorescence analysis; assay type: ADME, cell-based; settings: time 60-300 min
# Integrin alpha-V/beta-3 [26] = target: T2, Integrin alpha-V/beta-3; experiment: Agonist activity at integrin alphaVbeta3 in human M21 cells assessed as increase in FAK expression at 1 nM incubated for 5 to 60 mins by Western blot analysis; assay type: cell-based; settings: time 5-60 min
# Integrin alpha-5/beta-1 [27] = target: T1, Integrin alpha-5/beta-1; experiment: Agonist activity at integrin alpha5beta1 in human OV-MZ-6 cells assessed as fold increase in FAK expression at 1 nM measured after 5 mins by Western blot analysis (reference value: 1); assay type: cell-based; settings: filed as agonist
# Integrin alpha-5/beta-1 [28] = target: T1, Integrin alpha-5/beta-1; experiment: Agonist activity at integrin alpha5beta1 in human OV-MZ-6 cells assessed as increase in FAK expression at 1 nM measured after 30 to 60 mins by Western blot analysis; assay type: cell-based; settings: time 30-60 min
# Integrin alpha-5/beta-1 [29] = target: T1, Integrin alpha-5/beta-1; experiment: Agonist activity at integrin alpha5beta1 in human OV-MZ-6 cells assessed as increase in FAK expression at 1 uM measured after 5 to 60 mins by Western blot analysis; assay type: cell-based; settings: time 5-60 min
# Integrin alpha-V/beta-3 [30] = target: T2, Integrin alpha-V/beta-3; experiment: Agonist activity at integrin alphaVbeta3 in human M21 cells assessed as increase in p-FAK expression at 1 nM incubated for 5 to 60 mins by Western blot analysis; assay type: cell-based; settings: time 5-60 min
# OV-MZ-6 [31] = experiment: Inhibition of cell migration in human OV-MZ-6 cells expressing integrin alpha5beta1 assessed as delay in wound gap closure at 1 uM measured within 24 hrs by wound scratch assay; assay type: functional, cell-based
# OV-MZ-6 [32] = experiment: Inhibition of cell migration in human OV-MZ-6 cells expressing integrin alpha5beta1 assessed as delay in wound gap closure at 1 uM measured within 72 hrs by wound scratch assay; assay type: functional, cell-based
# M21 = experiment: Inhibition of cell migration in human M21 cells expressing integrin alphaVbeta3 assessed as delay in wound gap closure at 1 to 1000 nM measured after 9 to 72 hrs by wound scratch assay; assay type: functional, cell-based; settings: dose 1-1000 nM, time 9-72 hrs
# OV-MZ-6 [33] = experiment: Inhibition of cell migration in human OV-MZ-6 cells expressing integrin alpha5beta1 assessed as delay in wound gap closure at 1 nM measured after 9 to 72 hrs by wound scratch assay; assay type: functional, cell-based; settings: time 9-72 hrs
# OV-MZ-6 [34] = experiment: Inhibition of cell adhesion in human OV-MZ-6 cells expressing integrin alpha5beta1 at 1 uM measured after 48 hrs by microscopic imaging analysis; assay type: functional, cell-based
# OV-MZ-6 [35] = experiment: Inhibition of cell adhesion in human OV-MZ-6 cells expressing integrin alpha5beta1 at 1 nM measured after 48 hrs by microscopic imaging analysis; assay type: functional, cell-based
structure (smiles),measurement,setting,value
COc1ccnc(NCCCOc2ccc(C[C@@H](CC(=O)O)NC(=O)c3ccc(OCCCNC(=O)CCCCCNC(=O)CCCCC[N+]4=C(/C=C/C=C/C=C5/N(C)c6ccc7ccccc7c6C5(C)C)C(C)(C)c5c4ccc4ccccc54)cc3)cc2)c1,Drug uptake,[1],Active
same,Drug uptake,[2],Active
same,Drug uptake,[3],Active
same,Drug uptake,[4],Active
CC(C)C[C@@H]1NC(=O)[C@H](CC(=O)O)NC(=O)CNC(=O)[C@H](CCCNC(=N)N)NC(=O)[C@H](Cc2ccccc2)NC(=O)[C@H](CCCCN)N(C)C(=O)[C@H]2CCCN2C(=O)[C@H](Cc2ccccc2)NC(=O)[C@H](C)NC1=O,inhibition,OV-MZ-6 [5],inactive
same,Activity,Integrin alpha-5/beta-1 [6],inactive
same,IC50,Integrin alpha-V/beta-3 [7],> 1000 nM
same,IC50,Integrin alpha-V/beta-6 [8],0.28 nM
same,Activity,HN [9],inactive
same,Activity,Integrin alpha-V/beta-3 [10],inactive
same,Activity,Integrin alpha-V/beta-3 [11],inactive
same,Activity,Integrin alpha-V/beta-3 [12],inactive
same,Activity,Integrin alpha-V/beta-3 [13],inactive
same,Activity,Integrin alpha-5/beta-1 [14],inactive
same,Activity,Integrin alpha-5/beta-1 [15],inactive
same,Activity,Integrin alpha-5/beta-1 [16],inactive
same,Activity,Integrin alpha-V/beta-6 [17],Active; Slight Increase Observed
same,Activity,Integrin alpha-5/beta-1 [18],inactive
same,fold change (FC),Integrin alpha-V/beta-6 [19],5
same,fold change (FC),Integrin alpha-V/beta-6 [20],6
same,fold change (FC),Integrin alpha-5/beta-1 [21],2.9
same,Activity,HN [22],inactive
same,inhibition,OV-MZ-6 [23],Active
CC(C)C[C@@H]1NC(=O)[C@H](CC(=O)O)NC(=O)CNC(=O)[C@H](CCCNC(=N)N)NC(=O)[C@H](Cc2ccccc2)NC(=O)[C@H](CCCCNC(=O)CCCCCNC(=O)CCCCC[N+]2=C(/C=C/C=C/C=C3/N(C)c4ccc5ccccc5c4C3(C)C)C(C)(C)c3c2ccc2ccccc32)N(C)C(=O)[C@H]2CCCN2C(=O)[C@H](Cc2ccccc2)NC(=O)[C@H](C)NC1=O,Drug uptake,[24],Active
same,Drug uptake,[25],Active
same,Drug uptake,[4],Not_active
C#CCCC(=O)NCCCOc1cc(C)c(C(=O)N[C@@H](CNC(=O)CNC(=O)c2cccc(NC(=N)N)c2)C(=O)O)c(C)c1,Activity,Integrin alpha-V/beta-3 [12]; filed as agonist,Active
same,Activity,Integrin alpha-5/beta-1 [14],inactive
same,Activity,Integrin alpha-5/beta-1 [16],inactive
same,Activity,Integrin alpha-V/beta-3 [26],inactive
same,fold change (FC),Integrin alpha-V/beta-6 [19],4
same,fold change (FC),Integrin alpha-V/beta-6 [20],3
same,fold change (FC),Integrin alpha-5/beta-1 [27],1.6
same,Activity,Integrin alpha-5/beta-1 [28],inactive
same,Activity,Integrin alpha-5/beta-1 [29],inactive
same,Activity,Integrin alpha-V/beta-3 [30],Not active; Slight Increase Compared To Control Observed
same,inhibition,OV-MZ-6 [31],Active
same,inhibition,OV-MZ-6 [32],inactive
same,inhibition,M21,inactive
same,inhibition,OV-MZ-6 [33],inactive
same,inhibition,OV-MZ-6 [34],Active
same,inhibition,OV-MZ-6 [35],inactive
